These molecules were tested against T1, human IL-17AA (Homo sapiens, UniProt Q16552) (assay: IL-8 release assay in human epithelial keratinocytes adult (HEKa)). Settings: 3 ng/ml human IL-17AA + 10 ng/ml human TNFalpha, 68-72 h, IL-8 by HTRF, read-out: Rel EC50 L-8 release assay.
T1 construct: host or cells: HEK (human embryonic kidney) cells
T1 sequence (Q16552 24-155) 1: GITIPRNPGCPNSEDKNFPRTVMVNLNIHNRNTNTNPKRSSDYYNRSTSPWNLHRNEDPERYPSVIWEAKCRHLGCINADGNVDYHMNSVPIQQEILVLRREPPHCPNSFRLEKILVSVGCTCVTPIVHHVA
T1 sequence (Q16552 24-155) 2: T1 sequence (Q16552 24-155) 1
Format: cell-based
How it was run: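 Adult human keratinocytes in Epilife with HKGS minus hydrocortisone, treated with compound then stimulated with final 3 ng/ml HEK-derived human IL-17AA plus 10 ng/ml TNF-alpha for 68–72 h at 37 °C; TNF-alpha alone defines 100% inhibition. Secreted IL-8 by HTRF; relative IC50 and Emax from four-parameter fits.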

Row | Structure (SMILES) | EC50 [nM]
1 | CC(C)n1cc(-c2ccc(Cl)c(CC(NC(=O)c3conc3C(F)(F)F)C(=O)Nc3ccc(-c4nncn4C)cc3)c2)ccc1=O (stereo not shown) [Example 95, N-[1-[[2-chloro-5-(1-isopropyl-6-oxo-3-pyridyl)phenyl]methyl]-2-[4-(4-methyl-1,2,4-triazol-3-yl)anilino]-2-oxo-ethyl]-3-(trifluoromethyl)isoxazole-4-carboxamide] | > 1000
2 | CC(C)n1cc(-c2ccc(Cl)c(CC(NC(=O)c3conc3C(C)(C)C)C(=O)Nc3ccc(-c4nncn4C)cc3)c2)ccc1=O (stereo not shown) [Example 96, 3-tert-butyl-N-[1-[[2-chloro-5-(1-isopropyl-6-oxo-3-pyridyl)phenyl]methyl]-2-[4-(4-methyl-1,2,4-triazol-3-yl)anilino]-2-oxo-ethyl]isoxazole-4-carboxamide] | 100 to 1000
3 | CC(C)n1cc(-c2ccc(Cl)c(CC(NC(=O)C(F)(F)c3ccccc3)C(=O)Nc3ccc(-c4nncn4C)cc3)c2)ccc1=O (stereo not shown) [Example 97, 3-[2-chloro-5-(1-isopropyl-6-oxo-3-pyridyl)phenyl]-2-[(2,2-difluoro-2-phenyl-acetyl)amino]-N-[4-(4-methyl-1,2,4-triazol-3-yl)phenyl]propanamide] | > 1000
4 | Cc1[nH]nnc1-c1ccc(NC(=O)C(Cc2cc(-c3ccc(=O)n(C(C)C)c3)ccc2Cl)NC(=O)c2ccnn2C)cc1 (stereo not shown) [Example 98, N-[1-[[2-chloro-5-(1-isopropyl-6-oxo-3-pyridyl)phenyl]methyl]-2-[4-(5-methyl-1H-triazol-4-yl)anilino]-2-oxo-ethyl]-2-methyl-pyrazole-3-carboxamide] | 100 to 1000
5 | CC(C)OC(=O)N[C@@H](Cc1cc(-c2ccc(=O)n(C(C)C)c2)ccc1Cl)C(=O)Nc1ccc(-c2nncn2C)cc1 [Example 99, isopropyl N-[(1S)-1-[[2-chloro-5-(1-isopropyl-6-oxo-3-pyridyl)phenyl]methyl]-2-[4-(4-methyl-1,2,4-triazol-3-yl)anilino]-2-oxo-ethyl]carbamate] | > 1000
6 | CC(C)COC(=O)N[C@@H](Cc1cc(-c2ccc(=O)n(C(C)C)c2)ccc1Cl)C(=O)Nc1ccc(-c2nncn2C)cc1 [Example 100, isobutyl N-[(1S)-1-[[2-chloro-5-(1-isopropyl-6-oxo-3-pyridyl)phenyl]methyl]-2-[4-(4-methyl-1,2,4-triazol-3-yl)anilino]-2-oxo-ethyl]carbamate] | 100 to 1000
7 | CC(C)n1cc(-c2ccc(Cl)c(CC(NC(=O)OC(C)(C)C)C(=O)Nc3ccc(-c4cncn4C)c(Cl)c3)c2)ccc1=O (stereo not shown) [Example 101, tert-butyl N-[1-[[2-chloro-5-(1-isopropyl-6-oxo-3-pyridyl)phenyl]methyl]-2-[3-chloro-4-(3-methylimidazol-4-yl)anilino]-2-oxo-ethyl]carbamate] | > 1000
8 | Cc1nocc1C(=O)NC(Cc1cc(-c2ccc(=O)n(C(C)C)c2)ccc1Cl)C(=O)Nc1ccc(-c2ccnn2C)c(Cl)c1 (stereo not shown) [Example 102, N-[1-[[2-chloro-5-(1-isopropyl-6-oxo-3-pyridyl)phenyl]methyl]-2-[3-chloro-4-(2-methylpyrazol-3-yl)anilino]-2-oxo-ethyl]-3-methyl-isoxazole-4-carboxamide] | 100 to 1000
9 | Cc1nocc1C(=O)NC(Cc1cc(-c2ccc(=O)n(C(C)C)c2)ccc1Cl)C(=O)Nc1ccc(-c2cncn2C)c(Cl)c1 (stereo not shown) [Example 103, N-[1-[[2-chloro-5-(1-isopropyl-6-oxo-3-pyridyl)phenyl]methyl]-2-[3-chloro-4-(3-methylimidazol-4-yl)anilino]-2-oxo-ethyl]-3-methyl-isoxazole-4-carboxamide] | < 100
10 | CC(C)n1cc(-c2ccc(Cl)c(C[C@H](NC(=O)C3(F)CC3)C(=O)Nc3ccc(-c4cncn4C)cc3)c2)ccc1=O [Example 104, N-[(1S)-1-[[2-chloro-5-(1-isopropyl-6-oxo-3-pyridyl)phenyl]methyl]-2-[4-(3-methylimidazol-4-yl)anilino]-2-oxo-ethyl]-1-fluoro-cyclopropanecarboxamide] | 100 to 1000
11 | CC(C)n1cc(-c2ccc(Cl)c(CC(NC(=O)OC3CCC3)C(=O)Nc3ccc(-c4nncn4C)cc3)c2)ccc1=O (stereo not shown) [Example 105, cyclobutyl N-[1-[[2-chloro-5-(1-isopropyl-6-oxo-3-pyridyl)phenyl]methyl]-2-[4-(4-methyl-1,2,4-triazol-3-yl)anilino]-2-oxo-ethyl]carbamate] | 100 to 1000

Results, then the molecule that gave them:

Row | EC50 [nM] | Structure (SMILES)
12 | > 1000 | CC(C)n1cc(-c2ccc(Cl)c(CC(NC(=O)OCC3(C)CC3)C(=O)Nc3ccc(-c4nncn4C)cc3)c2)ccc1=O (stereo not shown) [Example 106, (1-methylcyclopropyl)methyl N-[1-[[2-chloro-5-(1-isopropyl-6-oxo-3-pyridyl)phenyl]methyl]-2-[4-(4-methyl-1,2,4-triazol-3-yl)anilino]-2-oxo-ethyl]carbamate]
13 | 100 to 1000 | Cc1nocc1C(=O)NC(Cc1cc(-c2cccc(C(=O)N(C)C3CC3)c2)ccc1Cl)C(=O)Nc1ccc(-c2nncn2C)cc1 (stereo not shown) [Example 107, N-[1-[[2-chloro-5-[3-[cyclopropyl(methyl)carbamoyl]phenyl]phenyl]methyl]-2-[4-(4-methyl-1,2,4-triazol-3-yl)anilino]-2-oxo-ethyl]-3-methyl-isoxazole-4-carboxamide]
14 | 100 to 1000 | CCc1cccc(-c2ccc(Cl)c(CC(NC(=O)c3ccnn3C)C(=O)Nc3ccc(-c4nncn4C)cc3)c2)c1 (stereo not shown) [Example 108, N-[1-[[2-chloro-5-(3-ethylphenyl)phenyl]methyl]-2-[4-(4-methyl-1,2,4-triazol-3-yl)anilino]-2-oxo-ethyl]-2-methyl-pyrazole-3-carboxamide]
15 | 100 to 1000 | Cn1cnnc1-c1ccc(NC(=O)C(Cc2cc(-c3cccc(C(C)(C)O)c3)ccc2Cl)NC(=O)c2ccnn2C)cc1 (stereo not shown) [Example 109, N-[1-[[2-chloro-5-[3-(1-hydroxy-1-methyl-ethyl)phenyl]phenyl]methyl]-2-[4-(4-methyl-1,2,4-triazol-3-yl)anilino]-2-oxo-ethyl]-2-methyl-pyrazole-3-carboxamide]
16 | 100 to 1000 | CCOc1cccc(-c2ccc(Cl)c(CC(NC(=O)c3ccnn3C)C(=O)Nc3ccc(-c4nncn4C)cc3)c2)c1 (stereo not shown) [Example 110, N-[1-[[2-chloro-5-(3-ethoxyphenyl)phenyl]methyl]-2-[4-(4-methyl-1,2,4-triazol-3-yl)anilino]-2-oxo-ethyl]-2-methyl-pyrazole-3-carboxamide]
17 | 100 to 1000 | Cn1cnnc1-c1ccc(NC(=O)C(Cc2cc(-c3cccc(OC(F)(F)F)c3)ccc2Cl)NC(=O)c2ccnn2C)cc1 (stereo not shown) [Example 111, N-[1-[[2-chloro-5-[3-(trifluoromethoxy)phenyl]phenyl]methyl]-2-[4-(4-methyl-1,2,4-triazol-3-yl)anilino]-2-oxo-ethyl]-2-methyl-pyrazole-3-carboxamide]
18 | 100 to 1000 | Cn1cnnc1-c1ccc(NC(=O)C(Cc2cc(-c3cccc(OC(F)F)c3)ccc2Cl)NC(=O)c2ccnn2C)cc1 (stereo not shown) [Example 112, N-[1-[[2-chloro-5-[3-(difluoromethoxy)phenyl]phenyl]methyl]-2-[4-(4-methyl-1,2,4-triazol-3-yl)anilino]-2-oxo-ethyl]-2-methyl-pyrazole-3-carboxamide]
19 | > 1000 | Cc1nocc1C(=O)NC(Cc1cc(-c2cccc(C(=O)N3CCC3)c2)ccc1Cl)C(=O)Nc1ccc(-c2nncn2C)cc1 (stereo not shown) [Example 113, N-[1-[[5-[3-(azetidine-1-carbonyl)phenyl]-2-chloro-phenyl]methyl]-2-[4-(4-methyl-1,2,4-triazol-3-yl)anilino]-2-oxo-ethyl]-3-methyl-isoxazole-4-carboxamide]
20 | 100 to 1000 | Cc1nccn1-c1ccc(NC(=O)[C@H](Cc2cc(-c3ccc(=O)n(C(C)C)c3)ccc2Cl)NC(=O)C2(F)CC2)cc1 [Example 114, N-[(1S)-1-[[2-chloro-5-(1-isopropyl-6-oxo-3-pyridyl)phenyl]methyl]-2-[4-(2-methylimidazol-1-yl)anilino]-2-oxo-ethyl]-1-fluoro-cyclopropanecarboxamide]
21 | > 1000 | CC(C)CC(=O)N[C@@H](Cc1cc(-c2ccc(=O)n(C(C)C)c2)ccc1Cl)C(=O)Nc1ccc(-c2nncn2C)cc1 [Example 115, N-[(1S)-1-[[2-chloro-5-(1-isopropyl-6-oxo-3-pyridyl)phenyl]methyl]-2-[4-(4-methyl-1,2,4-triazol-3-yl)anilino]-2-oxo-ethyl]-3-methyl-butanamide]
22 | > 1000 | CC(C)n1cc(-c2ccc(Cl)c(C[C@H](NC(=O)CC3CC3)C(=O)Nc3ccc(-c4nncn4C)cc3)c2)ccc1=O [Example 116, (2S)-3-[2-chloro-5-(1-isopropyl-6-oxo-3-pyridyl)phenyl]-2-[(2-cyclopropylacetyl)amino]-N-[4-(4-methyl-1,2,4-triazol-3-yl)phenyl]propanamide]
23 | > 1000 | CC(C)n1cc(-c2ccc(Cl)c(C[C@H](NC(=O)C3(C(F)(F)F)CC3)C(=O)Nc3ccc(-c4nncn4C)cc3)c2)ccc1=O [Example 117, N-[(1S)-1-[[2-chloro-5-(1-isopropyl-6-oxo-3-pyridyl)phenyl]methyl]-2-[4-(4-methyl-1,2,4-triazol-3-yl)anilino]-2-oxo-ethyl]-1-(trifluoromethyl) cyclopropanecarboxamide]
24 | < 100 | Cc1cnn(C)c1-c1ccc(NC(=O)[C@H](Cc2cc(-c3ccc(=O)n(C(C)C)c3)ccc2Cl)NC(=O)c2conc2C)cc1 [Example 118, N-[(1S)-1-[[2-chloro-5-(1-isopropyl-6-oxo-3-pyridyl)phenyl]methyl]-2-[4-(2,4-dimethylpyrazol-3-yl)anilino]-2-oxo-ethyl]-3-methyl-isoxazole-4-carboxamide]
25 | 100 to 1000 | Cc1cnn(C)c1-c1ccc(NC(=O)[C@H](Cc2cc(-c3ccc(=O)n(C(C)C)c3)ccc2Cl)NC(=O)C2(F)CC2)cc1 [Example 119, N-[(1S)-1-[[2-chloro-5-(1-isopropyl-6-oxo-3-pyridyl)phenyl]methyl]-2-[4-(2,4-dimethylpyrazol-3-yl)anilino]-2-oxo-ethyl]-1-fluoro-cyclopropanecarboxamide]

— patent US20220162191A1, “SMALL MOLECULE MODULATORS OF IL-17” (LEO PHARMA A/S, priority 2019, published 2022)
